{
  "source": "patent US20120231482A1",
  "about": "“METHOD, KIT OR DIAGNOSTIC FOR THE DETECTION OF REAGENTS WHICH INDUCE ALTERED CONTRACTILITY” (THE JOHNS HOPKINS UNIVERSITY, priority 2009, published 2012)",
  "key": {"[1]": {"biological_target": "T1, myosin heavy chain β (Rattus norvegicus, UniProt P02564)", "T1 construct": "Rat myofibrillar preparations, as described in [7], were obtained from frozen ventricles (Pel Freez Biologicals); tissue Pel Freez Biologicals; host or cells: myofibrils from frozen rat ventricles", "T1 sequence (P02564 whole entry)": "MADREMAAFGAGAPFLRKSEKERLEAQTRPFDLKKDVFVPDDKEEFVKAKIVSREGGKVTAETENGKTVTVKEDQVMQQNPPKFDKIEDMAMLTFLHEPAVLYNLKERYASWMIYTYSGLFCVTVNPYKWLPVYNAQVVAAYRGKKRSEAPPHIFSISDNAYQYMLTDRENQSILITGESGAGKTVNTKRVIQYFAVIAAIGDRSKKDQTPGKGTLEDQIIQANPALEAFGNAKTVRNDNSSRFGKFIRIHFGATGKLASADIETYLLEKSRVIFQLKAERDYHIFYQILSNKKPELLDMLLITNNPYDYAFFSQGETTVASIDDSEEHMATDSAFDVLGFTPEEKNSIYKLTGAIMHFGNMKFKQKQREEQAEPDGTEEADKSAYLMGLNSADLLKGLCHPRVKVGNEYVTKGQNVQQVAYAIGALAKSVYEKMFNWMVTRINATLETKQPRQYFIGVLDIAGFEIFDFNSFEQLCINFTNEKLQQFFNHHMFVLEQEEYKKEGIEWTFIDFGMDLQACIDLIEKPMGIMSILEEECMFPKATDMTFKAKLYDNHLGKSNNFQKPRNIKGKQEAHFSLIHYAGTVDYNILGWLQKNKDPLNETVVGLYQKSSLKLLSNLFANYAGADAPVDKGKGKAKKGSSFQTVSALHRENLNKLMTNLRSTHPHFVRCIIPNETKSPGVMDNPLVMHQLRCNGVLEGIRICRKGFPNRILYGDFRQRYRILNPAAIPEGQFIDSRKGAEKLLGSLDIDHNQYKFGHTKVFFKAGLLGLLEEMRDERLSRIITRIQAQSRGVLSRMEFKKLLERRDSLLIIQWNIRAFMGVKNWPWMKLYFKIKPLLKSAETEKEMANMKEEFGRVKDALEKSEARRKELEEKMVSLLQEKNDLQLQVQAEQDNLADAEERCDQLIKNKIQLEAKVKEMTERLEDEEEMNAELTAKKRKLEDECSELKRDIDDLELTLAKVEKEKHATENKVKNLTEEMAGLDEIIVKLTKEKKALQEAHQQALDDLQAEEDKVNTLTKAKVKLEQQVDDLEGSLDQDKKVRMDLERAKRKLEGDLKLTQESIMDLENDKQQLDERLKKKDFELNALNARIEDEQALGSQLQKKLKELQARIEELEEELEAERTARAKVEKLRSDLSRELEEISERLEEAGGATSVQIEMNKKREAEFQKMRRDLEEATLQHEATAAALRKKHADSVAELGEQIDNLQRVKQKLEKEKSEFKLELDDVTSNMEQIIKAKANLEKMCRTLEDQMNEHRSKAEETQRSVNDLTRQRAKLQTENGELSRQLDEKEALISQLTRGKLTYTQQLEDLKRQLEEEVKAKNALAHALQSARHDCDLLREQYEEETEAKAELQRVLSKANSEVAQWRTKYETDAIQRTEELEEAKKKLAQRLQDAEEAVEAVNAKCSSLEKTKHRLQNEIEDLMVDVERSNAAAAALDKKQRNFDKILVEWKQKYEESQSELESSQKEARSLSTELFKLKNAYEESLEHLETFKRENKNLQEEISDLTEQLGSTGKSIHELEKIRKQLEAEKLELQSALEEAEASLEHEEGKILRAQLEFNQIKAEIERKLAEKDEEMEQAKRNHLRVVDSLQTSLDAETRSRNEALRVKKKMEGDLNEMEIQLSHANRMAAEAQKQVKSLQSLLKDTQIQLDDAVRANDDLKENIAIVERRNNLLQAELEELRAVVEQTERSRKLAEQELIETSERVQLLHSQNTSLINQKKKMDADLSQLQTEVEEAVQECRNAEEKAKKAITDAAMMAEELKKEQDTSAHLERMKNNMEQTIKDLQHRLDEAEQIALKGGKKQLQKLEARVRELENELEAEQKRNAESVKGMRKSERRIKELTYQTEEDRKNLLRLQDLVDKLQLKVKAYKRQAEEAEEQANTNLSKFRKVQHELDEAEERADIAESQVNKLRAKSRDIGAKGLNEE", "test": "Modified biotin switch assay, sites of HNO modification", "type": "biochemical", "description": "(§1) Rat myofibrillar preparations, as described in [7], were obtained from frozen ventricles (Pel Freez Biologicals) minced in 20 volumes/tissue weight of 4° C. relax buffer (SRB (75 mM KCL, 10 mM imidazole pH 7.2, 2 mM MgCl2) plus 4 mM phosphocreatine, 1 mM ATP, 50 mM BDM, 1 mM benzamidine-HCL, 0.1 mM PMSF, 1 μg/ml leupeptin, 1 μg/ml pepstatin, 1% (v/v) Trixon X-100) and adjusted to 10 mM EDTA. Minced preparations were centrifuged for 8 min at 3000xg and the supernant was decanted. Resulting pellets were resuspended in 10 volumes of SRB plus 1% Triton X-100 and subjected to 6 strokes in a Duall tissue homogenizer and centrifuged as above. Pellets were gently resuspended and centrifuged as above twice more in SRB including 1% (v/v) Triton X-100, twice in SRB lacking Triton X-100 and once in K-60 buffer (60 mM KCL, 20 mM MOPS, 2 mM MgCl2 pH 7) before being resuspended in 5 volumes of K-60.\n(§2) Detection of HNO modifications by Modified Biotin Switch. HNO modified thiols were detected using a modification to the standard biotin switch protocol. In brief, 100 μg of rat myofibrils/treatment were diluted to 0.5 μg/μl in HEN (250 mM HEPES pH 7.7, 1 mM EDTA and 0.1 mM neocuproine) including 0.1% (w/v) SDS and exposed to a treatment for 10 min at 37° C. which was subsequently removed by acetone precipitation. Remaining free thiols were blocked by addition of 300 μl of HEN including 2.5% (w/v) SDS and 20 mM N-ethylmaleimide (NEM), incubated for 20 min at 50° C. Excess NEM was removed by acetone precipitation. HNO and/or NO modified thiols were reduced using 5 mM DTT or 1 mM ascorbate in 150 μl of HEN including 1% (w/v) SDS and biotinylated with 0.8 mM Biotin-HPDP (Pierce) for one hour at room temperature. Excess biotin-HPDP was removed by acetone precipitation (2 volumes) and resultant pellets were carefully washed with an additional volume of acetone. Biotinylated proteins were resuspended in 1 ml of HEN including 0.1% (w/v) SDS and captured by incubation with 15 μl of washed, packed Ultralink Immobilized Streptavidin (Pierce) for one hour at room temperature. Beads were washed four times in 50 bead volumes of HEN (twice including 0.1% (w/v) SDS, twice including 600 mM NaCl) and twice with EB (20 mM HEPES pH 7.7, 100 mM NaCl, 1 mM EDTA). Captured proteins were eluted with 40 μl of EB containing 100 mM DTT, mixed with 15 μl of 4×LDS sample buffer, boiled, separated by SDS PAGE and silver stained. For MS studies, biotinylated proteins were digested overnight with trypsin (Promega) prior to capture and washed ten additional times with 5 mM ammonium bicarbonate/20% acetonitrile before being eluted in 100 μl of wash buffer including 100 mM DTT as described. Captured peptides were identified using a LTQ linear ion trap tandem mass spectrometer (ThermoFinnigan, Waltham Mass. USA) with data searched against the rat IPI primary sequence database using the sorcerer searching platform (sagen).\n(§3) To investigate the modifications that underlie the difference seen in the functional effect of these two compounds we performed an analysis on the myofilament proteins, using a modified biotin-switch method, followed by mass spectrometry for identification (FIG. 3). Following treatment with HNO or control compounds, unmodified cysteines are blocked with NEM before treatment with a reducing agent and labeling the exposed cysteines with a biotin group (FIG. 3A). In this case, 5 mM DTT was used as the reducing agent because it was shown in the physiological studies to reverse the effect of the treatment. […] Tryptic or chymotryptic peptides containing the modified cysteine residues were captured and identified by LC/MS/MS. […] To parse the role of candidate sites of modification between these two effects a comparative proteomics experiment was designed where modifications specific to NCA treatment would be considered candidates for the Ca^2+ effect while sites identified in common between AS and NCA could be candidates for the force effect (FIG. 3C). […]"}, "[2]": {"biological_target": "T2, tropomyosin (α) (Rattus norvegicus, UniProt P04692)", "T2 construct": "Rat myofibrillar preparations, as described in [7], were obtained from frozen ventricles (Pel Freez Biologicals); tissue Pel Freez Biologicals; host or cells: myofibrils from frozen rat ventricles", "T2 sequence (P04692 whole entry)": "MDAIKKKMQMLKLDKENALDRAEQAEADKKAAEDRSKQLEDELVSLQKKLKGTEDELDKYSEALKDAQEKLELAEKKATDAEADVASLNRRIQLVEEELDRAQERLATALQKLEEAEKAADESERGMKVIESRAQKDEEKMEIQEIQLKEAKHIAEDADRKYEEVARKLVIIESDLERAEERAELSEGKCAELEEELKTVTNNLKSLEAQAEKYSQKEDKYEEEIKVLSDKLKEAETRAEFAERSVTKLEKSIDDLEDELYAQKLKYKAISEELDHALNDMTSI", "test": "Modified biotin switch assay, sites of HNO modification", "type": "biochemical", "description": "as §1, §2, §3"}},
  "note": "Marks after values point to notes of the source that are not given here.",
  "data": [
    {"smiles": "CC(=O)OC1(N=O)CCCCC1", "note": "[NCA, 1-nitrosocyclohexylacetate]", "values": [
      {"measurement": "number of independent observations of peptide", "setting": "[1]; Cys 947, tryptic peptide KLEDECELKR, 25 μM NCA or 500 μM AS", "result": 3},
      {"measurement": "Position of modified Cys", "setting": "[1]; myosin heavy chain (β), Table 2", "result": "947(β)*"},
      {"measurement": "number of independent observations of peptide", "setting": "[2]; Cys 190, tryptic peptide CLELEEELKTVTNNLK, 25 μM NCA or 500 μM AS", "result": "3^a"},
      {"measurement": "Position of modified Cys", "setting": "[2]; α-tropomyosin, Table 2", "result": 190}
    ]}
  ]
}
